- melting point: 57 to 59 °C
Compound: COC(=O)Cc1ccccc1N=C1N(C)CC(=O)N1C
